This is an account of results in patent US20250051277A1, “DELIVERY OF THERAPEUTIC ALKALOID COMPOUNDS” (Sensorium Therapeutics, Inc., priority 2021, published 2025).

Where two headings read alike, the source gives them in different places.

Series [1] is classed as physicochemical. The following applies: DI water, 25° C., 0.5 mM.
Series [2] is classed as physicochemical. The following applies: SGF with pepsin, pH 1.5, 37° C.; for Condition 1 Conversion (%): 0.5 mM; for Condition 1 Conversion (%), first value of pair x/y: first of two values; for Condition 1 Conversion (%), second value of pair x/y: second of two values.

In the case of `COc1ccc([C@@]23CCC(=NOCc4cccnc4)C[C@@H]2N(C)CC3)cc1OC` [Compound 209, (3aS)-3a-(3,4-dimethoxyphenyl)-1-methyl-N-(3-pyridylmethoxy)-2,3,4,5,7,7a-hexahydroindol-6-imine], the “Condition 2 Conversion (%)” value in series [1] (time 1 min), in series [1] (time 5 min), in series [1] (time 30 min), in series [1] (time 1 h), in series [1] (time 4 h) and in series [1] (time 24 h) was 0% throughout. For the same compound, the “Condition 1 Conversion (%)” value in series [2] (time 1 min), in series [2] (time 5 min), in series [2] (time 30 min), in series [2] (time 1 h), in series [2] (time 4 h) and in series [2] (time 24 h) was 0% throughout.

In the case of `COc1ccc([C@@]23CCC(=NOCCON=C4CC[C@@]5(c6ccc(OC)c(OC)c6)CCN(C)[C@H]5C4)C[C@@H]2N(C)CC3)cc1OC` [Compound 210, (3aS,7aS)-N-[2-[[(3aS,7aS)-3a-(3,4-dimethoxyphenyl)-1-methyl-2,3,4,5,7,7a-hexahydroindol-6-ylidene]amino]oxyethoxy]-3a-(3,4-dimethoxyphenyl)-1-methyl-2,3,4,5,7,7a-hexahydroindol-6-imine], the “Condition 2 Conversion (%)” value in series [1] (time 1 min), in series [1] (time 5 min), in series [1] (time 30 min), in series [1] (time 1 h), in series [1] (time 4 h) and in series [1] (time 24 h) was 0% each time. Besides, the “Condition 1 Conversion (%)” value is given as 0% in series [2] (time 1 min); 0% in series [2] (time 5 min); 3.48% in series [2] (time 30 min); 7.51% in series [2] (time 1 h); 14.75% in series [2] (time 4 h); 15.35% in series [2] (time 24 h).

In the case of `COc1ccc([C@]23CCN(C)[C@H]2CC2(CC3)OCC(C(=O)O)O2)cc1OC` (stereo partly drawn) [Compound 214, (3aS,7aS)-3a-(3,4-dimethoxyphenyl)-1-methyloctahydrospiro[indole-6,2′-[1,3]dioxolane]-4′-carboxylic acid], the “Condition 2 Conversion (%)” value in series [1] (time 1 min), in series [1] (time 5 min), in series [1] (time 30 min), in series [1] (time 1 h), in series [1] (time 4 h) and in series [1] (time 24 h) was 0% in each case. For the same compound, the “Condition 1 Conversion (%)” value in series [2] (time 1 min), in series [2] (time 5 min), in series [2] (time 30 min), in series [2] (time 1 h), in series [2] (time 4 h) and in series [2] (time 24 h) was 0% throughout.

As to `COc1ccc([C@@]23CC/C(=N/OC(C)(C)OC)C[C@@H]2N(C)CC3)cc1OC` [Compound 219, (Z,3aS,7aS)-3a-(3,4-dimethoxyphenyl)-N-(1-methoxy-1-methyl-ethoxy)-1-methyl-2,3,4,5,7,7a-hexahydroindol-6-imine], the “Condition 2 Conversion (%)” value in series [1] (time 1 min), in series [1] (time 5 min), in series [1] (time 30 min), in series [1] (time 1 h), in series [1] (time 4 h) and in series [1] (time 24 h) was 0% in each case. Further, the “Condition 1 Conversion (%), first value of pair x/y” value in series [2] (time 1 min) turned out to be 100%; in series [2] (time 5 min) it was 100%; in series [2] (time 30 min), 0%; in series [2] (time 1 h), 0%; in series [2] (time 4 h), 0%; in series [2] (time 24 h), 0%. Besides, the “Condition 1 Conversion (%), second value of pair x/y” value in series [2] (time 1 min) is recorded as 0%; in series [2] (time 5 min) it was 0%; in series [2] (time 30 min) it was 100%; in series [2] (time 1 h), 100%; in series [2] (time 4 h), 100%; in series [2] (time 24 h), 100%.

In the case of `COc1ccc([C@@]23CCC(=NNC(=O)c4ccc(F)cc4)C[C@@H]2N(C)CC3)cc1OC` [Compound 220, N-[[(3aS)-3a-(3,4-dimethoxyphenyl)-1-methyl-2,3,4,5,7,7a-hexahydroindol-6-ylidene]amino]-4-fluoro-benzamide], the “Condition 2 Conversion (%)” value in series [1] (time 1 min) was 20.02%; in series [1] (time 5 min) it was 21.53%; in series [1] (time 30 min), 22.27%; in series [1] (time 1 h), 55.36%; in series [1] (time 4 h), 88.25%; in series [1] (time 24 h), 89.93%. The “Condition 1 Conversion (%)” value came to 86.72% in series [2] (time 1 min); 100% in series [2] (time 5 min); 100% in series [2] (time 30 min); 100% in series [2] (time 1 h); 100% in series [2] (time 4 h); 100% in series [2] (time 24 h).

For the compound `COc1ccc([C@@]23CCC(=NNc4ccc(Cl)cc4)C[C@@H]2N(C)CC3)cc1OC` [Compound 221, N-[[(3aS,7aS)-3a-(3,4-dimethoxyphenyl)-1-methyl-2,3,4,5,7,7a-hexahydroindol-6-ylidene]amino]-4-chloro-aniline], the “Condition 2 Conversion (%)” value in series [1] (time 1 min), in series [1] (time 5 min), in series [1] (time 30 min), in series [1] (time 1 h), in series [1] (time 4 h) and in series [1] (time 24 h) was 0% throughout. Further, the “Condition 1 Conversion (%)” value in series [2] (time 1 min) was 0%; in series [2] (time 5 min), 0%; in series [2] (time 30 min) it was 2.9%; in series [2] (time 1 h), 3.4%; in series [2] (time 4 h), 17.5%; in series [2] (time 24 h), 95.1%.

`COc1ccc([C@@]23CCC(=NNC(C)=O)C[C@@H]2N(C)CC3)cc1OC` [Compound 222, N-[[(3aS,7aS)-3a-(3,4-dimethoxyphenyl)-1-methyl-2,3,4,5,7,7a-hexahydroindol-6-ylidene]amino]acetamide]: the “Condition 2 Conversion (%)” value in series [1] (time 1 min) worked out at 10%; in series [1] (time 5 min) it was 20%; in series [1] (time 30 min) it was 50%; in series [1] (time 1 h), 100%; in series [1] (time 4 h) it was 100%; in series [1] (time 24 h), 100%. Also, the “Condition 1 Conversion (%)” value in series [2] (time 1 min), in series [2] (time 5 min), in series [2] (time 30 min), in series [2] (time 1 h), in series [2] (time 4 h) and in series [2] (time 24 h) was 100% throughout.

As to `COc1ccc([C@@]23CCC(=NNC(=O)COc4ccccc4)C[C@@H]2N(C)CC3)cc1OC` [Compound 223, N-[[(3aS,7aS)-3a-(3,4-dimethoxyphenyl)-1-methyl-2,3,4,5,7,7a-hexahydroindol-6-ylidene]amino]-2-phenoxy-acetamide], the “Condition 2 Conversion (%)” value in series [1] (time 1 min) is recorded as 9.8%; in series [1] (time 5 min) it was 10.4%; in series [1] (time 30 min), 13.5%; in series [1] (time 1 h), 18.5%; in series [1] (time 4 h), 50.1%; in series [1] (time 24 h) it was 81.3%. For the same compound, the “Condition 1 Conversion (%)” value in series [2] (time 1 min), in series [2] (time 5 min), in series [2] (time 30 min), in series [2] (time 1 h), in series [2] (time 4 h) and in series [2] (time 24 h) was 100% each time.

As for `COc1ccc([C@@]23CCC(=NOCCOc4ccccc4)C[C@@H]2N(C)CC3)cc1OC` [Compound 234, (3aS,7aS)-3a-(3,4-dimethoxyphenyl)-1-methyl-N-(2-phenoxyethoxy)-2,3,4,5,7,7a-hexahydroindol-6-imine], the “Condition 2 Conversion (%)” value in series [1] (time 1 min), in series [1] (time 5 min), in series [1] (time 30 min), in series [1] (time 1 h), in series [1] (time 4 h) and in series [1] (time 24 h) was 0% throughout. The “Condition 1 Conversion (%)” value in series [2] (time 1 min) is recorded as 0%; in series [2] (time 5 min), 0%; in series [2] (time 30 min), 0%; in series [2] (time 1 h), 0%; in series [2] (time 4 h), 2.16%; in series [2] (time 24 h), 2.63%.
